Earlier results on 11 molecules are cited in patent US20240350374A1, “COMPOSITION AND METHODS OF TREATMENT USING TRANSDERMAL SUPPLEMENTATION” (Xygenyx Inc., priority 2023, published 2024).

For data set [1], the system named is skin. The note with it: as penetration enhancer.
Data set [2] relates to skin. The note with it: topical application, concentrations 0.5-5%.
The conditions of data set [3]: compared to α-tocopherol = 1.0.
Data set [4] has as its system wide dynamic range neurons in the ventroposterolateral nucleus of the thalamus. The note with it: believed.
The conditions of data set [5]: even when dietary intake occurs in equal portions.
In another data set the test system is rheumatoid arthritis. The note with it: arthritic subjects.
The conditions of data set [6]: in vivo.
Another data set concerns markers of inflammation. The note with it: supplementation, individuals with metabolic syndrome.
A further data set deals with F2-isoprostane. The note with it: large doses of 1600-3200 IU/day.
Data set [7] deals with skin. The note with it: topical formulations, within four weeks of treatment.

Where a SMILES comes first, the peptide text is derived from it. Some results are limits rather than exact numbers.

For `CC(C)[C@@H]1CC[C@@H](C)C[C@H]1O` [Menthol], the “factor of increase of transdermal drug uptake / penetration” value in the data set on skin [1] is reported as not below 10.
On to `C=CCCCCCCCCC(=O)N[C@@H](Cc1ccccc1)C(=O)O` [UP, Undecylenoyl phenylalanine], for which, in the data set on skin [2], the “time to skin lightening effects” value is not below 7 days.
Consider `Cc1cc(O)c(C)c2c1O[C@](C)(CCC[C@H](C)CCC[C@H](C)CCCC(C)C)CC2` [β-tocopherol], for which the relative biological activity in data set [3] was 0.5.
Take `CCCCCc1cc(O)c2c(c1)OC(C)(C)C1CCC(C)=CC21` (stereo not shown) [THC, Δ-9-tetrahydrocannabinol]: the “power in mediating pain relative to morphine” value in data set [4] is reported as “ten times more powerful than morphine”.
In the case of `Cc1c(O)cc2c(c1C)O[C@](C)(CCC[C@H](C)CCC[C@H](C)CCCC(C)C)CC2` [γ-tocopherol], the “concentration in vivo relative to α-tocopherol” value in [5] is reported as “roughly 10%”. The relative biological activity in data set [3] is 0.1.
As for `C=C1CC/C=C(\C)CC[C@@H]2[C@@H]1CC2(C)C` [β-caryophyllene], in the data set on rheumatoid arthritis, the “increases of protein carbonyl groups and myeloperoxidase activity in liver and plasma” value is listed as “eliminated”; the “number of circulating and articular leukocytes” value is reported as “reduced”; the “swelling of joints and lymph nodes” value is “reduced”.
“HGH: hormone comprising a peptide chain that is synthesized in the pituitary gland”: in [6], the biological half-life was 10-20 minutes.
Take `CC12CCC(CC1)C(C)(C)O2` [eucalyptol, 1,8-epoxy-p-menthane]: the “factor of increase of transdermal drug uptake / penetration” value in the data set with skin [1] was “more than 10”.
In the case of `Cc1cc(O)cc2c1O[C@](C)(CCC[C@H](C)CCC[C@H](C)CCCC(C)C)CC2` [δ-tocopherol], the “markers of inflammation in the blood” value in the data set with markers of inflammation was “reduced”. Further, in [3], the relative biological activity is on record as 0.03.
In the case of `Cc1c(C)c2c(c(C)c1O)CC[C@@](C)(CCC[C@H](C)CCC[C@H](C)CCCC(C)C)O2` [α-tocopherol], the “blood plasma concentration of F2-isoprostane” value in the data set on F2-isoprostane was “significantly lower”. Besides, for the setting “dietary supplementation, doses up to 400 IU/day”, the “reduction of risk of coronary disease” value is recorded as “up to 34%”. Besides, where the note is “dietary supplementation, doses up to 400 IU/day, controlled trials”, the “reduction of risk of developing neurodegenerative diseases (Alzheimer's Syndrome or dementia)” value was not above 24%. For the same molecule, the “reduction in the development of age-related cataracts” value (in combination with 10-20 mg β-carotene and 400-500 mg vitamin C, doses around 400-500 IU) is 23%. The relative biological activity in [3] was 1.0.
Turning to `CC[C@H](C)[C@H](NC(=O)[C@H](CC(=O)O)NC(=O)[C@@H](N)CCCCN)C(=O)N[C@@H](CCCNC(N)=O)C(N)=O` [tripeptide-10 citrulline, Tripeptide-10 citrulline] (HELM PEPTIDE1{K.D.I.[Cit].[am]}$$$$V2.0), the improvement of suppleness with skin [7] is given as not above 54%.
